Assay results: US9751842B2, “Phthalazine derivatives” (Merck Patent GmbH, priority 2013, dated 2017)
pIC50: −log10 of the molar value.

Tests used:
Format in all cases: biochemical
[1] = target: T1, GST-tagged Tankyrase-1 (1023-1327 aa) (Homo sapiens, UniProt O95271); assay: Tankyrase 1 autoparsylation HTRF enzyme assay; details: HTRF autoparsylation, 90 min at 30° C; read-out: IC50 TNKS1 enzyme assay
T1 construct: GST-tagged Tankyrase-1 (1023-1327 aa)
Protocol: (§1) Biochemical Activity Testing of Tankyrase 1 and 2: Autoparsylation Assay
(§2) The autoparsylation assay is run in two steps: the enzymatic reaction in which GST-tagged Tankyrase-1, resp Tankyrase-2 transferred biotinylated ADP-ribose to itself from biotinylated NAD as co-substrate and the detection reaction where a time resolved FRET between cryptate labelled anti-GST bound to the GST tag of the enzyme and Xlent® labelled-streptavidin bound the biotin-parsylation residue is analysed. The autoparsylation activity was detectable directly via the increase in HTRF signal.
(§3) The autoparsylation assay is performed as 384-well HTRF® (Cisbio, Codolet, France) assay format in Greiner low volume nb 384-well microtiter plates and is used for high throughput screen. 250 nM GST-tagged Tankyrase-1 (1023-1327 aa), respectively about 250 nM GST-tagged Tankyrase-2 (873-1166 aa) and 5 μM bio-NAD (Biolog, Life science Inst., Bremen, Germany) as co-substrate are incubated in a total volume of 5 μl (50 mM HEPES, 4 mM Mg-chloride, 0.05% Pluronic F-68, 1.4 mM DTT, 0.5% DMSO, pH 7.7) in the absence or presence of the test compound (10 dilution concentrations) for 90 min at 30° C. The reaction is stopped by the addition of 1 μl 50 mM EDTA solution. 2 μl of the detection solution (1.6 μM SA-Xlent® (Cisbio, Codolet, France), 7.4 nM Anti-GST-K® (Eu-labelled anti-GST, Cisbio, Codolet, France) in 50 mM HEPES, 800 mM KF, 0.1° A. BSA, 20 mM EDTA, 0.1% CHAPS, pH 7.0) are added. After 1 h incubation at room temperature the HTRF is measured with an Envision multimode reader (Perkin Elmer LAS Germany GmbH) at excitation wavelength 340 nm (laser mode) and emission wavelengths 615 nm and 665 nm. The ratio of the emission signals is determined. The full value used is the inhibitor-free reaction. The pharmacological zero value used is XAV-939 (Tocris) in a final concentration of 5 μM. The inhibitory values (IC50) are determined using either the program Symyx Assay Explorer® or Condosseo® from GeneData.

[2] = target: T2, GST-tagged Tnks-1 (1023-1327 aa) (Homo sapiens, UniProt O95271); assay: TNKS1 activity ELISA (autoparsylation); details: activity ELISA, 1 hour at 30° C; read-out: IC50 TNKS1 ELISA
T2 construct: GST-tagged Tnks-1 (1023-1327 aa, prepared in-house); made in house
Protocol: Description of the TNKS1 and TNKS2 ELISA Assay
Biochemical Activity Testing of TNKS 1 and 2: Activity ELISA (Autoparsylation Assay)
For analysis of autoparsylation activity of TNKS 1 and 2 an activity ELISA is performed: In the first step GST tagged TNKS is captured on a Glutathione coated plate. Then the activity assay with biotinylated NAD is performed in the absence/presence of the compounds. During the enzymatic reaction GST tagged TNKS transfers biotinylated ADP-ribose to itself from biotinylated NAD as co-substrate. For the detection streptavidin-HRP conjugate is added that binds to the biotinylated TNKS and is thereby captured to the plates. The amount of biotinylated resp. autoparsylated TNKS is detected with a luminescence substrate for HRP. The level of the luminescence signal correlates directly with the amount of autoparsylated TNKS and therefore with activity of TNKS.
The activity ELISA is performed in 384 well Glutathione coated microtiter plates (Express capture Glutathione coated plate, Biocat, Heidelberg, Germany). The plates are pre-equilibrated with PBS. Then the plates are incubated with 50 μl 20 ng/well GST-tagged Tnks-1 (1023-1327 aa, prepared in-house), respectively GST-tagged Tnks-2 (873-1166 aa, prepared in-house) in assay buffer (50 mM HEPES, 4 mM Mg-chloride, 0.05% Pluronic F-68, 2 mM DTT, pH 7.7) overnight at 4° C. The plates are washed 3 times with PBS-Tween-20. The wells are blocked by incubation at room temperature for 20 minutes with 50 μl blocking buffer (PBS, 0.05% Tween-20, 0.5% BSA). Afterwards the plates are washed 3 times with PBS-Tween-20. The enzymatic reaction is performed in 50 μl reaction solution (50 mM HEPES, 4 mM Mg-chloride, 0.05% Pluronic F-68, 1.4 mM DTT, 0.5% DMSO, pH 7.7) with 10 μM bio-NAD (Biolog, Life science Inst., Bremen, Germany) as co-substrate in the absence or presence of the test compound (10 dilution concentrations) for 1 hour at 30° C. The reaction is stopped by 3 times washing with PBS-Tween-20. For the detection 50 μl of 20 ng/μl Streptavidin, HRP conjugate (MoBiTec, Göttingen, Germany) in PBS/0.05% Tween-20/0.01% BSA are added and the plates are incubated for 30 minutes at room temperature. After three times washing with PBS-Tween-20 50 μl of SuperSignal ELISA Femto Maximum sensitivity substrate solution (ThermoFisherScientific (Pierce), Bonn, Germany) are added. Following a 1 minute incubation at room temperature luminescence signals are measured with an Envision multimode reader (Perkin Elmer LAS Germany GmbH) at 700 nm. The full value used is the inhibitor-free reaction. The pharmacological zero value used is XAV-939 (Tocris) in a final concentration of 5 μM. The inhibitory values (IC50) are determined using either the program Symyx Assay Explorer® or Condosseo® from GeneData.

[3] = target: T3, GST-tagged Tankyrase-2 (873-1166 aa) (Homo sapiens, UniProt Q9H2K2); assay: Tankyrase 2 autoparsylation HTRF enzyme assay; details: HTRF autoparsylation, 90 min at 30° C; read-out: IC50 TNKS2 enzyme assay
T3 construct: GST-tagged Tankyrase-2 (873-1166 aa)
Protocol: as §1, §2, §3

T2 sequence (O95271 1023-1327): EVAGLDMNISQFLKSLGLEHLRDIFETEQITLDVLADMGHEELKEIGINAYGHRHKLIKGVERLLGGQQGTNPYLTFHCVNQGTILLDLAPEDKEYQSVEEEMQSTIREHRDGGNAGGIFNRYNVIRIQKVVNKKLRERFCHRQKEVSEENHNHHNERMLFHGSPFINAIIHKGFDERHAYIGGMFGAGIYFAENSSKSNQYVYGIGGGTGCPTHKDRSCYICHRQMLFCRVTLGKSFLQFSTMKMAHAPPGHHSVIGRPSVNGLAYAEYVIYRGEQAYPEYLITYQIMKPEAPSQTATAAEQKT
T1 sequence (O95271 1023-1327): as above
T3 sequence (Q9H2K2 873-1166): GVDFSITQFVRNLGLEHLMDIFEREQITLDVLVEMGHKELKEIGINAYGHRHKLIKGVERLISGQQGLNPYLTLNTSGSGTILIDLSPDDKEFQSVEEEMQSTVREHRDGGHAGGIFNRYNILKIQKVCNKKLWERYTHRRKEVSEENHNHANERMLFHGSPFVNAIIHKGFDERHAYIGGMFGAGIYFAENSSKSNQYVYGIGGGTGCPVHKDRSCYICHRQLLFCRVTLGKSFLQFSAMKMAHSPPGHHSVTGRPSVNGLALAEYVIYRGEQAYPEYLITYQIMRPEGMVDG

SMILES	pIC50 [1]	pIC50 [2]	pIC50 [3]
O=C(Cc1ccccc1)Nc1nncc2ccccc12 [Compound A1, 2-phenyl-N-phthalazin-1-yl-acetamide]	> 6.52	> 6.52	5.52 to 6.52
COc1cccc(CC(=O)Nc2nncc3ccccc23)c1 [Compound A2, 2-(3-methoxyphenyl)-N-phthalazin-1-yl-acetamide]	5.52 to 6.52	5.52 to 6.52	5.52 to 6.52
COc1ccc(CC(=O)Nc2nncc3ccccc23)cc1 [Compound A3, 2-(4-methoxyphenyl)-N-phthalazin-1-yl-acetamide]	> 6.52	> 6.52	5.52 to 6.52

The remaining lines, values ahead:

pIC50 [1]	pIC50 [2]	pIC50 [3]	SMILES
> 6.52	> 6.52	5.52 to 6.52	CCOc1ccc(CC(=O)Nc2nncc3ccccc23)cc1 [Compound A4, 2-(4-ethoxyphenyl)-N-phthalazin-1-yl-acetamide]
> 6.52	> 6.52	> 6.52	O=C(CCC1CCCC1)Nc1nncc2ccccc12 [Compound A15, 3-cyclopentyl-N-phthalazin-1-yl-propionamide]
> 6.52	> 6.52	> 6.52	O=C(CCc1ccccc1Cl)Nc1nncc2ccccc12 [Compound A16, 3-(2-chloro-phenyl)-N-phthalazin-1-yl-propionamide]
5.52 to 6.52	> 6.52	5.52 to 6.52	Cc1cccc2cnnc(NC(=O)Cc3ccccc3)c12 [Compound A18, N-(8-methyl-phthalazin-1-yl)-2-phenyl-acetamide]
5.52 to 6.52	> 6.52	5.52 to 6.52	COc1ccc(CC(=O)Nc2nncc3cccc(C)c23)cc1 [Compound A20, 2-(4-methoxy-phenyl)-N-(8-methyl-phthalazin-1-yl)-acetamide]
